Results published in US20230111310A1, “CARBOXYLIC ACID DERIVATIVE-SUBSTITUTED IMINO ARYL COMPOUND, PREPARATION METHOD THEREFOR, HERBICIDAL COMPOSITION AND USE THEREOF” (Qingdao Kingagroot Chemical Compound Co., Ltd., priority 2020, published 2023).

Assays:
Experiment in all cases: Weeding effect in post-emergence stage
Format in all cases: in vivo
Details in all cases: level of fresh weight growth control rate
[1] = system: Abutilon theophrasti
Outline: (§1)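 Doses of 500, 250, 125, 60, 30, 15 and 7.5 g/ha, with methyl oleate synergist (1.5 liter/ha) and Tween 80 from acetone solution, applied by spray tower post-emergence (2–3 leaf stage). Weed control scored after 3 further greenhouse weeks, averaged over triplicates.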

[2] = system: Alopecurus japonicus
Outline: as §1

[3] = system: Digitaria sanguinalis
Outline: as §1

[4] = system: Eleusine indica
Outline: as §1

[5] = system: Setaria viridis
Outline: as §1

[6] = system: Echinochloa crusgalli
Outline: as §1

C[C@@H](O/N=C/c1cc(-n2c(=O)cc(C(F)(F)F)n(C)c2=O)c(F)cc1Cl)C(=O)OCc1ccc(F)cc1 [286(R)]
Weeding effect in post-emergence stage, Abutilon theophrasti ([1]; Dose 30 g/ha): 5 (Level 5: growth control rate is above 85%)
Weeding effect in post-emergence stage, Alopecurus japonicus ([2]; Dose 30 g/ha): 5 (Level 5: growth control rate is above 85%)
Weeding effect in post-emergence stage, Digitaria sanguinalis ([3]; Dose 30 g/ha): 5 (Level 5: growth control rate is above 85%)
Weeding effect in post-emergence stage, Eleusine indica ([4]; Dose 30 g/ha): 5 (Level 5: growth control rate is above 85%)
Weeding effect in post-emergence stage, Setaria viridis ([5]; Dose 30 g/ha): 5 (Level 5: growth control rate is above 85%)
Weeding effect in post-emergence stage, Echinochloa crusgalli ([6]; Dose 30 g/ha): 5 (Level 5: growth control rate is above 85%)

C[C@@H](O/N=C/c1cc(-n2c(=O)cc(C(F)(F)F)n(C)c2=O)c(F)cc1Cl)C(=O)OCc1cccnc1 [302(R)]
Weeding effect in post-emergence stage, Abutilon theophrasti ([1]; Dose 15 g/ha): 5 (Level 5: growth control rate is above 85%)
Weeding effect in post-emergence stage, Alopecurus japonicus ([2]; Dose 15 g/ha): 5 (Level 5: growth control rate is above 85%)
Weeding effect in post-emergence stage, Digitaria sanguinalis ([3]; Dose 15 g/ha): 5 (Level 5: growth control rate is above 85%)
Weeding effect in post-emergence stage, Eleusine indica ([4]; Dose 15 g/ha): 5 (Level 5: growth control rate is above 85%)
Weeding effect in post-emergence stage, Setaria viridis ([5]; Dose 15 g/ha): 5 (Level 5: growth control rate is above 85%)
Weeding effect in post-emergence stage, Echinochloa crusgalli ([6]; Dose 15 g/ha): 5 (Level 5: growth control rate is above 85%)

C[C@@H](O/N=C/c1cc(-n2c(=O)cc(C(F)(F)F)n(C)c2=O)c(F)cc1Cl)C(=O)OCc1ccncc1 [303(R)]
Weeding effect in post-emergence stage, Abutilon theophrasti ([1]; Dose 15 g/ha): 5 (Level 5: growth control rate is above 85%)
Weeding effect in post-emergence stage, Alopecurus japonicus ([2]; Dose 15 g/ha): 5 (Level 5: growth control rate is above 85%)
Weeding effect in post-emergence stage, Digitaria sanguinalis ([3]; Dose 15 g/ha): 5 (Level 5: growth control rate is above 85%)
Weeding effect in post-emergence stage, Eleusine indica ([4]; Dose 15 g/ha): 5 (Level 5: growth control rate is above 85%)
Weeding effect in post-emergence stage, Setaria viridis ([5]; Dose 15 g/ha): 5 (Level 5: growth control rate is above 85%)
Weeding effect in post-emergence stage, Echinochloa crusgalli ([6]; Dose 15 g/ha): 5 (Level 5: growth control rate is above 85%)

CCOC(=O)[C@@H](F)O/N=C/c1cc(-n2c(=O)cc(C(F)(F)F)n(C)c2=O)c(F)cc1Cl [313(R)]
Weeding effect in post-emergence stage, Abutilon theophrasti ([1]; Dose 15 g/ha): 5 (Level 5: growth control rate is above 85%)
Weeding effect in post-emergence stage, Alopecurus japonicus ([2]; Dose 15 g/ha): 5 (Level 5: growth control rate is above 85%)
Weeding effect in post-emergence stage, Digitaria sanguinalis ([3]; Dose 15 g/ha): 5 (Level 5: growth control rate is above 85%)
Weeding effect in post-emergence stage, Eleusine indica ([4]; Dose 15 g/ha): 5 (Level 5: growth control rate is above 85%)
Weeding effect in post-emergence stage, Setaria viridis ([5]; Dose 15 g/ha): 5 (Level 5: growth control rate is above 85%)
Weeding effect in post-emergence stage, Echinochloa crusgalli ([6]; Dose 15 g/ha): 5 (Level 5: growth control rate is above 85%)

CCC[C@@H](O/N=C/c1cc(-n2c(=O)cc(C(F)(F)F)n(C)c2=O)c(F)cc1Cl)C(=O)OC [316(R)]
Weeding effect in post-emergence stage, Abutilon theophrasti ([1]; Dose 15 g/ha): 5 (Level 5: growth control rate is above 85%)
Weeding effect in post-emergence stage, Alopecurus japonicus ([2]; Dose 15 g/ha): 5 (Level 5: growth control rate is above 85%)
Weeding effect in post-emergence stage, Digitaria sanguinalis ([3]; Dose 15 g/ha): 5 (Level 5: growth control rate is above 85%)
Weeding effect in post-emergence stage, Eleusine indica ([4]; Dose 15 g/ha): 5 (Level 5: growth control rate is above 85%)
Weeding effect in post-emergence stage, Setaria viridis ([5]; Dose 15 g/ha): 5 (Level 5: growth control rate is above 85%)
Weeding effect in post-emergence stage, Echinochloa crusgalli ([6]; Dose 15 g/ha): 5 (Level 5: growth control rate is above 85%)

COC(=O)[C@H](O/N=C/c1cc(-n2c(=O)cc(C(F)(F)F)n(C)c2=O)c(F)cc1Cl)C(C)C [318(R)]
Weeding effect in post-emergence stage, Abutilon theophrasti ([1]; Dose 15 g/ha): 5 (Level 5: growth control rate is above 85%)
Weeding effect in post-emergence stage, Alopecurus japonicus ([2]; Dose 15 g/ha): 5 (Level 5: growth control rate is above 85%)
Weeding effect in post-emergence stage, Digitaria sanguinalis ([3]; Dose 15 g/ha): 5 (Level 5: growth control rate is above 85%)
Weeding effect in post-emergence stage, Eleusine indica ([4]; Dose 15 g/ha): 5 (Level 5: growth control rate is above 85%)
Weeding effect in post-emergence stage, Setaria viridis ([5]; Dose 15 g/ha): 5 (Level 5: growth control rate is above 85%)
Weeding effect in post-emergence stage, Echinochloa crusgalli ([6]; Dose 15 g/ha): 5 (Level 5: growth control rate is above 85%)

CCOC(=O)[C@H](O/N=C/c1cc(-n2c(=O)cc(C(F)(F)F)n(C)c2=O)c(F)cc1Cl)C1CC1 [319(R)]
Weeding effect in post-emergence stage, Abutilon theophrasti ([1]; Dose 30 g/ha): 5 (Level 5: growth control rate is above 85%)
Weeding effect in post-emergence stage, Alopecurus japonicus ([2]; Dose 30 g/ha): 5 (Level 5: growth control rate is above 85%)
Weeding effect in post-emergence stage, Digitaria sanguinalis ([3]; Dose 30 g/ha): 5 (Level 5: growth control rate is above 85%)
Weeding effect in post-emergence stage, Eleusine indica ([4]; Dose 30 g/ha): 5 (Level 5: growth control rate is above 85%)
Weeding effect in post-emergence stage, Setaria viridis ([5]; Dose 30 g/ha): 5 (Level 5: growth control rate is above 85%)
Weeding effect in post-emergence stage, Echinochloa crusgalli ([6]; Dose 30 g/ha): 5 (Level 5: growth control rate is above 85%)

COC(=O)[C@H](OC)O/N=C/c1cc(-n2c(=O)cc(C(F)(F)F)n(C)c2=O)c(F)cc1Cl [321(R)]
Weeding effect in post-emergence stage, Abutilon theophrasti ([1]; Dose 120 g/ha): 5 (Level 5: growth control rate is above 85%)
Weeding effect in post-emergence stage, Alopecurus japonicus ([2]; Dose 120 g/ha): 5 (Level 5: growth control rate is above 85%)
Weeding effect in post-emergence stage, Digitaria sanguinalis ([3]; Dose 120 g/ha): 5 (Level 5: growth control rate is above 85%)
Weeding effect in post-emergence stage, Eleusine indica ([4]; Dose 120 g/ha): 5 (Level 5: growth control rate is above 85%)
Weeding effect in post-emergence stage, Setaria viridis ([5]; Dose 120 g/ha): 5 (Level 5: growth control rate is above 85%)
Weeding effect in post-emergence stage, Echinochloa crusgalli ([6]; Dose 120 g/ha): 5 (Level 5: growth control rate is above 85%)

CCOC(=O)[C@H](OC)O/N=C/c1cc(-n2c(=O)cc(C(F)(F)F)n(C)c2=O)c(F)cc1Cl [322(R)]
Weeding effect in post-emergence stage, Abutilon theophrasti ([1]; Dose 120 g/ha): 5 (Level 5: growth control rate is above 85%)
Weeding effect in post-emergence stage, Alopecurus japonicus ([2]; Dose 120 g/ha): 5 (Level 5: growth control rate is above 85%)
Weeding effect in post-emergence stage, Digitaria sanguinalis ([3]; Dose 120 g/ha): 5 (Level 5: growth control rate is above 85%)
Weeding effect in post-emergence stage, Eleusine indica ([4]; Dose 120 g/ha): 5 (Level 5: growth control rate is above 85%)
Weeding effect in post-emergence stage, Setaria viridis ([5]; Dose 120 g/ha): 5 (Level 5: growth control rate is above 85%)
Weeding effect in post-emergence stage, Echinochloa crusgalli ([6]; Dose 120 g/ha): 5 (Level 5: growth control rate is above 85%)

CCO[C@H](O/N=C/c1cc(-n2c(=O)cc(C(F)(F)F)n(C)c2=O)c(F)cc1Cl)C(=O)OC [331(R)]
Weeding effect in post-emergence stage, Abutilon theophrasti ([1]; Dose 15 g/ha): 5 (Level 5: growth control rate is above 85%)
Weeding effect in post-emergence stage, Alopecurus japonicus ([2]; Dose 15 g/ha): 5 (Level 5: growth control rate is above 85%)
Weeding effect in post-emergence stage, Digitaria sanguinalis ([3]; Dose 15 g/ha): 5 (Level 5: growth control rate is above 85%)
Weeding effect in post-emergence stage, Eleusine indica ([4]; Dose 15 g/ha): 5 (Level 5: growth control rate is above 85%)
Weeding effect in post-emergence stage, Setaria viridis ([5]; Dose 15 g/ha): 5 (Level 5: growth control rate is above 85%)
Weeding effect in post-emergence stage, Echinochloa crusgalli ([6]; Dose 15 g/ha): 5 (Level 5: growth control rate is above 85%)
